Source: US20110294992A1, “METAL RESPONSIVE MRI-AGENTS” (The Regents of the University of California, priority 2010, published 2011)
“And” between values parts separate entries of the source, which are not always exact repeats. Equal values may be shown once.

What was measured:
Type in all cases: physicochemical
[1] = Longitudinal relaxivity (r1) turn-on response to Cu+ from T1 measurements at 60 MHz; details: 1 equiv Cu^+, 20 mM HEPES buffer, pH 7, 37° C.
Method: (§1) The longitudinal relaxivity values for the CG contrast agents in the absence or presence of copper ions were determined using T1 measurements at 60 MHz. Studies were performed at 37° C. in 20 mM HEPES buffered to pH 7, and solutions of the purified CG sensors for relaxivity experiments contained 0.2 mM Gd^3+ as determined by ICP-OES. Spectroscopic data are collected in Table 1.
Upon addition of up to 1 equiv of copper ions, the relaxivity values of the CG contrast agents increase, establishing the ability of these probes to sense copper using the MR modality (Table 1, FIG. 3). CG2, CG3, CG4, and CG5 respond to Cu^+ with relaxivity increases ranging from 92% to 360%. […] These values represent the largest relaxivity enhancements observed to date for metal-activated MR contrast agents and a ca. 9-fold improvement in copper ion response compared to CG1 (41% increase). The observed differences in turn-on Cu^+ responses for benzyl-substituted CG4 (290% increase) versus methyl-substituted CG5 (92% increase) with the same pyridyl-thioether receptor show the marked effects that small peripheral substitutions can have on relaxivity properties.

[2] = Metal ion selectivity of relaxivity response (competing metal ions alone or with added copper); details: relaxivity at 60 MHz, 20 mM HEPES, pH 7, 37° C.
Method: FIG. 6. Relaxivity responses of CG2 to various metal ions. White bars represent the addition of an excess of the appropriate metal ion (10 mM for Na^+, 2 mM for K^+, Mg^2+, and Ca^2+, and 0.2 mM for Fe^2+, Fe^3+, Cu^2+) to a 0.2 mM solution of CG2. Response to Zn^2+ was measured both at 0.2 mM Zn^2+ (Zn^2+1×) and 2 mM Zn^2+ (Zn^2+10×). Black bars represent the subsequent addition of 0.2 mM Cu^+ to the CG2 solution. Relaxivity measurements were acquired at 37° C. in 20 mM HEPES buffer, pH 7, at a proton Larmor frequency of 60 MHz.
The potential ability of this new family of CG sensors to sense bioavailable copper pools in either or both its predominant oxidation states represents a significant advance over the initial CG1 compound.

[3] = Longitudinal relaxivity (r1) from T1 measurements at 60 MHz, absence of copper; details: no copper; 60 MHz, 20 mM HEPES buffer, pH 7, 37° C., 0.2 mM Gd^3+
Method: as §1
Nuclear magnetic relaxation dispersion (NMRD) experiments provide supporting evidence for this proposal (vide infra).

- r1 (1 equiv Cu) [1]: 6.9 mM^−1s^−1 and 6.9^b mM^−1s^−1
- r1 (no Cu) [3]: 1.5 mM⁻¹ s⁻¹
Compound: CCSCCN(CCSCC)Cc1cccc(CN2CCN(CC(=O)[O-])CCN(CC(=O)[O-])CCN(CC(=O)[O-])CC2)n1.[Gd+3] [CG2]
- redox specificity of relaxivity response (Cu^+ vs Cu^2+) [2]: give turn-on relaxivity increases with Cu^+ but do not respond to Cu^2+
